# Laboratory results published in ChEMBL document CHEMBL3784964, “Targeting the trehalose utilization pathways of Mycobacterium tuberculosis” (Medchemcomm, 2016).
# Key:
# [1] = Competitive inhibition of recombinant Mycobacterium smegmatis trehalose synthase using DNPGlc as substrate by Dixon plot analysis; parameters: species or system Mycolicibacterium smegmatis
# [2] = system: Mycobacterium tuberculosis; assay: Antimycobacterial activity against Mycobacterium tuberculosis H37Rv by 2-fold broth dilution method; format: functional
# [3] = system: Mycobacterium tuberculosis; assay: Antimycobacterial activity against Mycobacterium tuberculosis H37Rv mc26206 incubated for 96 hrs by resazurin microtiter assay; format: functional; conditions: H37Rv mc26206, 96 h
# [4] = system: Mycobacterium tuberculosis; assay: Antimycobacterial activity against Mycobacterium tuberculosis H37Ra ATCC 25177; format: functional
# [5] = Inhibition of Mycobacterium tuberculosis antigen 85C mycolyltransferase activity incubated for 30 mins by scintillation counting method in presence of [14C]-trehalose
# [6] = system: Mycobacterium tuberculosis; assay: Antimycobacterial activity against Mycobacterium tuberculosis H37Rv by microdilution method; format: functional
# [7] = Inhibition of Mycobacterium tuberculosis antigen 85C acyltransferase activity preincubated with enzyme by UV-vis spectrophotometric analysis
# [8] = system: Mycobacterium tuberculosis; assay: Antimycobacterial activity against Mycobacterium tuberculosis H37Rv; format: functional
# [9] = system: Mycobacterium tuberculosis; assay: Antimycobacterial activity against Mycobacterium tuberculosis incubated for 96 hrs by resazurin microtiter assay; format: functional
# [10] = Inhibition of recombinant Mycobacterium tuberculosis H37Rv N-terminal His-tagged glgE expressed in Escherichia coli T7 Rosetta cells using MESG as substrate measured every 5 sec for 10 mins by PNP enzyme coupled assay
# [11] = system: Mycobacterium tuberculosis; assay: Inhibition of Mycobacterium tuberculosis antigen 85C mycolyltransferase activity at 100 ug/ml incubated for 30 mins by scintillation counting method in presence of [14C]-trehalose relative to control
# [12] = Inhibition of Mycobacterium tuberculosis antigen 85C mycolyltransferase activity using trehalose as substrate measured every 20 sec for 30 mins by 4-methylumbelliferyl butyrate fluorescence assay
structure (smiles),measurement,setting,value
OC[C@@H]1[C@@H](O)[C@H](O)C2[C@H](O)[C@@H](O)CN21 (stereo partly drawn),Ki,[1],2.5 µM
CC(C)=CCC/C(C)=C/CNCCNC1C2CC3CC(C2)CC1C3 (stereo not drawn) [SQ109],MIC,[2],1.5 µg/mL
O=c1c2ccccc2[se]n1-c1ccccc1 [EBSELEN],MIC,[3],20 µg/mL
CCCCCCCCCCNC[C@H]1O[C@H](O[C@H]2O[C@H](CNCCCCCCCCCC)[C@@H](O)[C@H](O)[C@H]2O)[C@H](O)[C@@H](O)[C@@H]1O,MIC,[4],1.3 µg/mL
CCCCCCCCS(=O)(=O)OCCN1C(=O)c2ccccc2C1=O,IC50,[5],4.3 µM
c1ccc(CNC23CC4CC(CC(C4)C2)C3)cc1,MIC,[6],10 µM
CCCCCCCCNC[C@H]1O[C@H](O[C@H]2O[C@H](CNCCCCCCCC)[C@@H](O)[C@H](O)[C@H]2O)[C@H](O)[C@@H](O)[C@@H]1O,MIC,[4],4 µg/mL
COC(=O)CC[C@H]1O[C@@H](OC)[C@@H](O)[C@@H]1O,IC50,[7],25000 µM
CCCCCCCCCCCCNC[C@H]1O[C@H](O[C@H]2O[C@H](CNCCCCCCCCCCCC)[C@@H](O)[C@H](O)[C@H]2O)[C@H](O)[C@@H](O)[C@@H]1O,MIC,[4],8 µg/mL
CCCn1cnc2cc(NCc3ccc(Cl)cc3Cl)ccc21,MIC,[8],16 µM
OC[C@H]1NC[C@H](O)[C@@H](O)[C@@H]1O [DUVOGLUSTAT],Ki,[1],0.25 µM
CCCC1CCc2c(sc(N)c2C#N)C1 (stereo not drawn),MIC,[9],100 µM
OC[C@H]1N[C@H](CO)[C@@H](O[C@H]2O[C@H](CO)[C@@H](O)[C@H](O)[C@H]2O)[C@@H]1O,Ki,[10],237 µM
COC(=O)c1c(NC(=O)c2c(F)c(F)c(F)c(F)c2F)sc2c1CCCCC2,MIC,[6],1 µM
CCc1sc(NC(=O)c2c(F)c(F)c(F)c(F)c2F)c(C(=O)OC(C)C)c1C,MIC,[6],1 µM
CN1CCN(Cc2cc(-c3ccc(Cl)cc3)n(-c3ccc(Cl)cc3)c2-c2ccccc2)CC1,MIC,[8],1.5 µg/mL
[N-]=[N+]=NC[C@H]1O[C@H](O[C@H]2O[C@H](CO)[C@@H](O)[C@H](O)[C@H]2O)[C@H](O)[C@@H](O)[C@@H]1O,inhibition,[11],60%
O=C(Nc1ccc(F)c(F)c1F)NC12CC3CC(CC(C3)C1)C2,MIC,[8],0.5 µg/mL
CCCCCCCCS(=O)(=O)NC[C@H]1O[C@H](O[C@H]2O[C@H](CNS(=O)(=O)CCCCCCCC)[C@@H](O)[C@H](O)[C@H]2O)[C@H](O)[C@@H](O)[C@@H]1O,MIC,[4],16 µg/mL
CCCCC(CC)CNC[C@H]1O[C@H](O[C@H]2O[C@H](CNCC(CC)CCCC)[C@@H](O)[C@H](O)[C@H]2O)[C@H](O)[C@@H](O)[C@@H]1O (stereo partly drawn),MIC,[4],32 µg/mL
O=C(Nc1ccccc1)O/N=C1\N[C@H](CO)[C@@H](O)[C@H](O)[C@H]1O,Ki,[1],2.1 µM
CCOC(=O)c1c(NC(=O)c2c(F)c(F)c(F)c(F)c2F)sc(C(N)=O)c1C,MIC,[6],0.5 µM
CCOC(=O)c1c(NC(=O)SC[C@H]2O[C@@H](O)[C@@H](O)[C@@H]2O)sc2c1CCCC2,Ki,[12],18.2 µM
